From ChEMBL document CHEMBL4402608 (J Med Chem, 2020)

Experiments:
[1] = target: Muscarinic acetylcholine receptor M4 (Homo sapiens, UniProt P08173); experiment: Displacement of [3H]-QNB/[3H]-NMS from human muscarinic M4 receptor expressed in stable CHO cell membranes after 90 mins by microbeta scintillation counting method
[2] = target: Alpha-2A adrenergic receptor (Homo sapiens, UniProt P08913); experiment: Displacement of [3H]-rauwolscine from recombinant human alpha2A adrenergic receptor stably expressed in MDCK cell membranes at 10 uM measured after 90 mins by microbeta scintillation counting method relative to control; conditions: probe [3H]-rauwolscine
[3] = target: Kappa-type opioid receptor (Homo sapiens, UniProt P41145); experiment: Displacement of [3H]-U69593 from KOR (unknown origin) measured after 90 mins by microbeta scintillation counting method
[4] = target: serotonin transporter (SERT) (Homo sapiens, UniProt P31645); experiment: Displacement of [3H]-citalopram from human SERT receptor expressed in stable HEK cell membranes at 10 uM after 90 mins by microbeta scintillation counting method relative to control; conditions: stable HEK cell membranes expressing human SERT, probe [3H]-citalopram
[5] = target: 5HT1D receptor (Homo sapiens, UniProt P28221); experiment: Displacement of [3H]5-CT from recombinant human 5HT1D receptor transiently expressed in HEKT cell membranes at 10 uM measured after 90 mins by microbeta scintillation counting method relative to control; conditions: probe [3H]5-CT
[6] = target: Histamine H1 receptor (Homo sapiens, UniProt P35367); experiment: Displacement of [3H]-pyrilamine from human histamine H1 receptor expressed in stable HEK cell membranes after 90 mins by microbeta scintillation counting method
[7] = target: Sodium-dependent serotonin transporter (Homo sapiens, UniProt P31645); experiment: Displacement of [3H]-citalopram from human SERT receptor expressed in stable HEK cell membranes after 90 mins by microbeta scintillation counting method
[8] = target: Alpha-2B adrenergic receptor (Homo sapiens, UniProt P18089); experiment: Displacement of [3H]-rauwolscine from recombinant human alpha2B adrenergic receptor transiently expressed in HEKT cell membranes at 10 uM measured after 90 mins by microbeta scintillation counting method relative to control; conditions: probe [3H]-rauwolscine
[9] = target: T1, Alpha-2C adrenergic receptor (Homo sapiens, UniProt P18825); experiment: Displacement of [3H]-rauwolscine from recombinant human alpha2C adrenergic receptor stably expressed in MDCK cell membranes at 10 uM measured after 90 mins by microbeta scintillation counting method relative to control; conditions: probe [3H]-rauwolscine
T1 sequence (P18825 whole entry): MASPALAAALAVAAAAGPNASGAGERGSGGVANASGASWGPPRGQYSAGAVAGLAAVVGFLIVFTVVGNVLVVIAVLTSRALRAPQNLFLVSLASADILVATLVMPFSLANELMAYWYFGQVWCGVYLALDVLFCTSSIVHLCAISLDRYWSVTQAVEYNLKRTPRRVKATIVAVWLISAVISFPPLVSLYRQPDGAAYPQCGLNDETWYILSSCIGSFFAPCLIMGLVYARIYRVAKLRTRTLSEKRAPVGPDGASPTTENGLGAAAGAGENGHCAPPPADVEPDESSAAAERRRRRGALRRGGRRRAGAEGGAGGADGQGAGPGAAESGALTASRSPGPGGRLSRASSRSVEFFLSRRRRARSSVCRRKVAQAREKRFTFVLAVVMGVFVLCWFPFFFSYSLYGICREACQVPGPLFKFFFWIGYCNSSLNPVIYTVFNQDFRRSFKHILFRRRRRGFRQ

[10] = target: dopamine D1 receptor (Homo sapiens, UniProt P21728); experiment: in vitro; conditions: probe [3H]-SCH23390
[11] = target: dopamine transporter (DAT) (Homo sapiens, UniProt Q01959); experiment: Displacement of [3H]-Win35428 from human DAT expressed in stable HEK cell membranes at 10 uM after 90 mins by microbeta scintillation counting method relative to control; conditions: stable HEK cell membranes expressing human DAT, probe [3H]-Win35428
[12] = target: 5HT2B receptor (Homo sapiens, UniProt P41595); experiment: Displacement of [3H]-LSD from recombinant human 5HT2B receptor stably expressed in HEK cell membranes at 10 uM measured after 90 mins by microbeta scintillation counting method relative to control; conditions: probe [3H]-LSD
[13] = target: noradrenaline transporter (NET) (Homo sapiens, UniProt P23975); experiment: Displacement of [3H]-Nisoxetine from human NET receptor expressed in stable HEK cell membranes at 10 uM after 90 mins by microbeta scintillation counting method relative to control; conditions: stable HEK cell membranes expressing human NET, probe [3H]-Nisoxetine
[14] = target: beta3 adrenergic receptor (Homo sapiens, UniProt P13945); experiment: Displacement of [3H]-CGP12177 from recombinant human beta3 adrenergic receptor expressed in HEK Flp-In cell membranes at 10 uM measured after 90 mins by microbeta scintillation counting method relative to control; conditions: probe [3H]-CGP12177
[15] = target: Beta-1 adrenergic receptor (Homo sapiens, UniProt P08588); experiment: Displacement of [125I]-pindolol from recombinant human beta1 adrenergic receptor expressed in CHO Flp-In cell membranes at 10 uM measured after 90 mins by microbeta scintillation counting method relative to control; conditions: probe [125I]-pindolol
[16] = target: 5-hydroxytryptamine receptor 2C (Homo sapiens) (UniProt P28335); experiment: Displacement of [3H]-Mesulergine from recombinant human 5HT2C receptor expressed in HEK cell membranes at 10 uM measured after 90 mins by microbeta scintillation counting method relative to control; conditions: probe [3H]-Mesulergine
[17] = target: 5HT6 receptor (Homo sapiens, UniProt P50406); experiment: Displacement of [3H]-LSD from recombinant human 5HT6 receptor stably expressed in HEK cell membranes at 10 uM measured after 90 mins by microbeta scintillation counting method relative to control; conditions: probe [3H]-LSD
[18] = target: T2, Alpha-1A adrenergic receptor (Homo sapiens, UniProt P35348); experiment: Displacement of [3H]-prazosin from recombinant human alpha1A adrenergic receptor at 10 uM measured after 90 mins by microbeta scintillation counting method relative to control; conditions: probe [3H]-prazosin
T2 sequence (P35348 whole entry): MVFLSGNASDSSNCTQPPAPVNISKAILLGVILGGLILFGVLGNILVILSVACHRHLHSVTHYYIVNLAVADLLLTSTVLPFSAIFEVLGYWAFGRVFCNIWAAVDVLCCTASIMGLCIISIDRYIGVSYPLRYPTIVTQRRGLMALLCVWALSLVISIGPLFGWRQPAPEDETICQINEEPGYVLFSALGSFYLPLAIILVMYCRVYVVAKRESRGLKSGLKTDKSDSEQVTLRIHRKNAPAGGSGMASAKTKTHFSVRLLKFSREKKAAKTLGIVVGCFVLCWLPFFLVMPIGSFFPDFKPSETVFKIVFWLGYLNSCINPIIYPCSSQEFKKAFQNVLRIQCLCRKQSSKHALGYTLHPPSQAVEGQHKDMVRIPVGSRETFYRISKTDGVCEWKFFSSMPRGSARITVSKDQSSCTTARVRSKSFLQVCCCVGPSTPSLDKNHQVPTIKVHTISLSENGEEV

Structure (SMILES) | inhibition at […], 10 µM [2] [%] | inhibition at […], 10 µM [4] [%] | inhibition at […], 10 µM [5] [%] | inhibition at […], 10 µM [8] [%] | inhibition at […], 10 µM [9] [%] | inhibition at […], 10 µM [10] [%] | inhibition at […], 10 µM [11] [%] | inhibition at […], 10 µM [12] [%] | inhibition at […], 10 µM [13] [%] | inhibition at […], 10 µM [14] [%] | inhibition at […], 10 µM [15] [%] | inhibition at […], 10 µM [16] [%] | inhibition at […], 10 µM [17] [%] | inhibition at […], 10 µM [18] [%] | also measured
CCCN(CC[C@]1(O)C[C@H](NC(=O)c2ccc3ccccc3c2)C1)[C@H]1CCc2nc(N)sc2C1 | < 50 | > 50 | < 50 | < 50 | < 50 | < 50 | > 50 | > 50 | > 50 | < 50 | < 50 | > 50 | < 50 | < 50 | Ki ([1]; read-out: Ki): 2280 nM; Ki ([3]; read-out: Ki): > 10000 nM; Ki ([6]; read-out: Ki): 110 nM; Ki ([7]; read-out: Ki): 32 nM
CCCN[C@H]1CCc2nc(N)sc2C1 [PRAMIPEXOLE] | > 50 | < 50 | > 50 | > 50 | > 50 | > 50 | < 50 | < 50 | < 50 | > 50 | < 50 | < 50 | > 50 | > 50 | Ki ([1]; cho): Not Active; Ki [3]: Not Active; Ki [6]: Not Active; Ki [7]: Not Active
